This note sets out measurements from US20250034139A1, “AMINE COMPOUNDS HAVING ANTI-INFLAMMATORY, ANTIFUNGAL, ANTIPARASITIC, AND ANTICANCER ACTIVITY” (PHARMA CINQ, LLC, priority 2013, published 2025).

Data set [1] has as its system THP-1 cells. Put plainly: Example C: compound screen, viable THP-1 cell count after 5 hours +/- LPS. In kind it is cell-based, Human. The settings on record: for ability to inactivate pro-inflammatory THP-1 cells, in words (relative to benchmark AC): LPS-treated THP-1 cells. From the text:
Background: THP-1 is a human acute myeloid leukemia (AML) cell line that can be induced into a macrophage-like cell with vitamin-D3 (vit-D3). In the macrophage, LPS (lipopolysaccharide; endotoxin) stimulation of toll-like receptor 4 (TLR-4) leads to NF-κB activation and secretion of inflammatory cytokines but also the priming of programmed death pathways through RIP and Caspase 8. The balance of this complex regulatory network is dependent on highly specific kinases, enzymes that require ATP. Disruption of either cytosolic pH or ATP availability/energy level uncouples this control network and the can macrophage shift away from production of inflammatory cytokines towards a programmed death event, which has the net effect of limiting inflammatory damage.

Data set [2] has as its system 4T1 murine breast cancer cells. Put plainly: Example S: in vitro anticancer screen, 4T1 cells, Wst1. In kind it is cell-based, mouse. Particulars: Mus musculus, 4T1, 18 h, 18 hr, Wst1; for viability at 1 µM: read-out: 4T1 1 μM, percent of cancer cell survival relative to vehicle treated cells; for viability at 5 µM: read-out: 4T1 5 μM, percent of cancer cell survival relative to vehicle treated cells. The essentials: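 Read-out is Wst1 absorbance (450 nm, reference 630 nm) after roughly 2 hr dye incubation, giving percent cell survival versus vehicle. Before that, compounds at 1 μM or 5 μM were applied for 18 hr to 4T1 cells plated at 1×10^4 per well.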

Data set [3] relates to THP-1 cells. Put plainly: Example D: LPS-triggered THP-1 cell death assay, acute/5-hour and chronic/48-hour. In kind it is cell-based, Human. The settings on record: for Viable cell percent change, Chronic/48-hour, Mean: 10 ng/ml LPS, 0.1 μM test compound; for activity relative to AC in the LPS-triggered THP-1 cell death assay, in words: 0.1 μM, 5-hour and 48-hour time points. Here is the method:
Compounds of the invention were tested at 0.1 μM versus AC in the LPS-triggered THP-1 cell death assay. Both acute/5-hour and chronic/48-hour phases of cell death were assessed. Compounds were screened in batches with DMSO as the negative control and AC as the high activity control.

The subject of data set [4] is PC3 human prostate cancer cells. Put plainly: Example S: in vitro anticancer screen, PC-3 cells, Wst1. The class given is cell-based. The settings on record: Homo sapiens, PC-3, approximately 20 hours, Wst1, read-out: PC-3, percent of cancer cell survival relative to vehicle treated cells. The essentials: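 Values give percent survival relative to vehicle, read by Wst1 absorbance (450/630 nm) after 2 h dye incubation, in triplicate. Cells were seeded at 2×10^4/well and treated about 20 h with compound at 0.4, 0.5 or 2.5 μM, depending on compound.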

Data set [5] has as its system PC-3 prostate cancer cells. Put plainly: Example T: sensitisation of PC-3 cells to doxorubicin, oxaliplatin, paclitaxel or vincristine, Wst1. In kind it is cell-based, human. Particulars: PC-3 cells, 72 hours; for viability at 0.4 µM: compound 0.4 μM alone; for Doxorubicin 3.5 μM: percent cell survival / Oxaliplatin 100 μM: percent cell survival / Paclitaxel 50 μM: percent cell survival / Vincristine 100 nM: percent cell survival: chemotherapy agent alone normalized to 100%.

Data set [6] concerns imiquimod-induced dermatitis. Particulars: for Ear thickness, Mean ± SEM: imiquimod-treated mice; for Ear thickness, Mean ± SEM / PASI Score, Mean ± SEM: topical ointment 0.06% active drug (dexamethasone 0.03%, tacrolimus 0.1%); for PASI Score, Mean ± SEM: scale 0-12. How it is done:
Topical imiquimod (IMQ), a toll-like receptor agonist, has been established as a model of Inflammatory skin diseases including psoriasis and atopic dermatitis. Dermal inflammatory changes and gene expression in mice treated with topical imiquimod mimic human psoriasis and dermatitis (van der Fits et al., 2009; Swindell et al., 2011). The effect of a set of compounds of the invention were tested in a mouse model of imiquimod-induced dermatitis, with topical tacrolimus and dexamethasone as comparators for assessing safety and efficacy relative to standard agents used to treat dermatitis in humans.
Commercial 0.1% tacrolimus ointment (ProTopic™[…]) was also used as an active comparator. Petrolatum containing 10% ethanol was used as a control treatment.
Female Balb/C mice (8 weeks old) were randomized and divided into groups of 5 animals each. Polyethylene collars were affixed to the mice to prevent them from easily scratching their ears. 5% imiquimod was applied to both ears of each mouse (20 microliters per ear) daily for 5 days, and then every other day for the full duration of the study. […] On day 7 after initiation of imiquimod, treatment with topical agents was started. Both ears of each mouse were treated with test ointments, with one compound per mouse.
Ear thickness and PASI assessments (Psoriasis Area and Severity Index, a standard psoriasis scoring system) were recorded twice per week throughout the study. The PASI score comprises the sum of evaluations of swelling, erythema and scaling on scales from 0 to 4; the maximum PASI score is 12, and the minimum, in unaffected skin, is 0).

Setting [7] is: Homo sapiens, Wst1, vehicle = 100, read-out: No Chemo: percent cell survival.
[8] abbreviates: compound 0.4 μM + doxorubicin 3.5 μM.
The mark [9] stands for this setting: compound 0.4 μM + oxaliplatin 100 μM.
[10] abbreviates: compound 0.4 μM + paclitaxel 50 μM.
[11] abbreviates: compound 0.4 μM + vincristine 100 nM.

`COCCCCCCCCNc1ccnc2ccccc12` [CJ, N-(8-Methoxyoctyl)quinolin-4-amine]: the “Reduction in viable THP-1 cell count (percent change) from 0 hours, Mean ± SE” value in data set [1] (Compound (0.1 μM), No LPS) was −5.53 ± 3.89%; in data set [1] (Compound (0.1 μM), Plus LPS) it was −30.15 ± 4.41%; in data set [1] (Compound (1.0 μM), No LPS) it was −6.99 ± 1.55%; in data set [1] (Compound (1.0 μM), Plus LPS) it was −41.62 ± 1.80%. Also, the “ability to inactivate pro-inflammatory THP-1 cells, in words (relative to benchmark AC)” value in data set [1] is listed as “higher activity than the active benchmark compound AC”. Moreover, the viability at 1 µM in data set [2] was 22.6%. Further, the viability at 5 µM in data set [2] was found to be 24.1%. Also, the “Viable cell percent change, Chronic/48-hour, Mean” value (“Viable cell percent change” for short) in data set [3] was found to be 15.44%. Further, the “activity relative to AC in the LPS-triggered THP-1 cell death assay, in words” value in data set [3] is recorded as “more active than AC at the chronic/48-hour time point”. Also, the viability at 0.4 µM in data set [4] and in data set [5] (setting [7]) was 53.7% throughout. Further, the “Doxorubicin 3.5 μM: percent cell survival” value in data set [5] (setting [8]) was determined as 18.9%. Besides, the “Oxaliplatin 100 μM: percent cell survival” value in data set [5] (setting [9]) was 19.7%. Further, the “Paclitaxel 50 μM: percent cell survival” value in data set [5] (setting [10]) was determined as 51.7%. For the same compound, in data set [5] (setting [11]), the “Vincristine 100 nM: percent cell survival” value is listed as 16.9%.
Regarding `COc1ccc(OCCCCCCNc2ccnc3ccccc23)cc1` [Compound CX, N-[6-(4-Methoxyphenoxy)hexyl]quinolin-4-amine], the “Reduction in viable THP-1 cell count (percent change) from 0 hours, Mean ± SE” value is −8.00 ± 1.41% in data set [1] (Compound (0.1 μM), No LPS); −38.09 ± 0.41% in data set [1] (Compound (0.1 μM), Plus LPS); −9.20 ± 3.09% in data set [1] (Compound (1.0 μM), No LPS); −49.57 ± 2.44% in data set [1] (Compound (1.0 μM), Plus LPS). The “ability to inactivate pro-inflammatory THP-1 cells, in words (relative to benchmark AC)” value in data set [1] was “higher activity than the active benchmark compound AC”. Also, the viability at 1 µM in data set [2] came out at 25.1%. The viability at 5 µM in data set [2] was found to be 20.7%. The “Viable cell percent change” value in data set [3] is recorded as 8.50%. The “activity relative to AC in the LPS-triggered THP-1 cell death assay, in words” value in data set [3] is “more active than AC at the chronic/48-hour time point”. The viability at 0.4 µM in data set [4] and in data set [5] (setting [7]) was 45.9% in each case. In addition, the “Doxorubicin 3.5 μM: percent cell survival” value in data set [5] (setting [8]) came out at 21.7%. Also, the “Oxaliplatin 100 μM: percent cell survival” value in data set [5] (setting [9]) is on record as 22.2%. In addition, the “Paclitaxel 50 μM: percent cell survival” value in data set [5] (setting [10]) was 48.2%. Also, the “Vincristine 100 nM: percent cell survival” value in data set [5] (setting [11]) came to 38.1%.
In the case of `c1ccc(Oc2ccc(Nc3ccnc4ccccc34)cc2)cc1` [DD, N-(4-Phenoxyphenyl)quinolin-4-amine], in data set [6], the “Ear thickness, Mean ± SEM” value is 0.589 ± 0.018 and the “PASI Score, Mean ± SEM” value is listed as 7.450 ± 0.322. Besides, in data set [6] (mouse, in vivo), the “Body Weight (mean ± SEM), Final” value is listed as 20.7 ± 0.6 g; the “Body Weight (mean ± SEM), Initial” value is 20.9 ± 0.8 g; the “D BW” value was -0.2 g. Also, in data set [2], the viability at 1 µM was 97.4% and the viability at 5 µM amounted to 104%. Also, the “Viable cell percent change” value in data set [3] was 44.34%.
As for `c1ccc(Oc2cccc(Nc3ccnc4ccccc34)c2)cc1` [DE, N-(3-Phenoxyphenyl)quinolin-4-amine], in data set [6], the “Ear thickness, Mean ± SEM” value was 0.593 ± 0.016 and the “PASI Score, Mean ± SEM” value worked out at 7.250 ± 0.183. In data set [6] (mouse, in vivo), the “Body Weight (mean ± SEM), Final” value was found to be 20.5 ± 0.5 g; the “Body Weight (mean ± SEM), Initial” value was found to be 20.6 ± 0.5 g; the “D BW” value was -0.1 g. For the same compound, in data set [2], the viability at 1 µM turned out to be 60.1% and the viability at 5 µM worked out at 28.6%. In addition, in data set [3], the “Viable cell percent change” value came to 25.65%. In addition, the viability at 2.5 µM in data set [4] (2.5 μM) was determined as 42%. In data set [5] (Homo sapiens, compound 2.5 μM alone, Wst1, vehicle = 100, read-out: No Chemo: percent cell survival), the viability at 2.5 µM amounted to 42%. The “Doxorubicin 3.5 μM: percent cell survival” value in data set [5] (compound 2.5 μM + doxorubicin 3.5 μM) came out at 69.3%. In addition, in data set [5] (compound 2.5 μM + oxaliplatin 100 μM), the “Oxaliplatin 100 μM: percent cell survival” value was found to be 84.7%. Also, the “Paclitaxel 50 μM: percent cell survival” value in data set [5] (compound 2.5 μM + paclitaxel 50 μM) worked out at 68.6%. Also, the “Vincristine 100 nM: percent cell survival” value in data set [5] (compound 2.5 μM + vincristine 100 nM) came out at 74%.
With `CCCCCCCCCCOc1cccc(CNc2ccnc3ccccc23)c1` [DU, N-[3-(Decyloxy)benzyl]quinolin-4-amine], in data set [6], the “Ear thickness, Mean ± SEM” value amounted to 0.607 ± 0.027 and the “PASI Score, Mean ± SEM” value worked out at 7.975 ± 0.621. In data set [6] (mouse, in vivo), the “Body Weight (mean ± SEM), Final” value turned out to be 20.9 ± 0.5 g; the “Body Weight (mean ± SEM), Initial” value is listed as 20.4 ± 0.7 g; the “D BW (g)” value is recorded as “+0.5 g”. The “Viable cell percent change” value in data set [3] is recorded as 17.10%.
Take `O=C(NCCCCCCCCNc1ccnc2ccccc12)c1cccnc1` [EF, N-[8-(Quinolin-4-ylamino)octyl]nicotinamide]: in data set [6], the “Ear thickness, Mean ± SEM” value was found to be 0.613 ± 0.010 and the “PASI Score, Mean ± SEM” value is given as 7.275 ± 0.199. For the same compound, in data set [6] (mouse, in vivo), the “Body Weight (mean ± SEM), Final” value worked out at 21.3 ± 0.2 g; the “Body Weight (mean ± SEM), Initial” value is on record as 21.5 ± 0.6 g; the “D BW” value is -0.2 g. In data set [2], the viability at 1 µM turned out to be 15.6% and the viability at 5 µM is 23.7%. Moreover, the viability at 0.4 µM in data set [4] was 16.7%. In addition, the viability at 0.4 µM in data set [5] (setting [7]) was 16.7%. Also, the “Doxorubicin 3.5 μM: percent cell survival” value in data set [5] (setting [8]) came out at 31.3%. Further, the “Oxaliplatin 100 μM: percent cell survival” value in data set [5] (setting [9]) is 21.7%. Moreover, in data set [5] (setting [10]), the “Paclitaxel 50 μM: percent cell survival” value is listed as 24.3%. The “Vincristine 100 nM: percent cell survival” value in data set [5] (setting [11]) is reported as 23.4%.
